Source: patent EP0326329B1, “Quinazoline derivatives useful as insecticides” (Dow AgroSciences LLC, priority 1988, dated 1989)

What was measured:
Format in all cases: in vivo
[1] = system: Venturia inaequalis (apple scab); assay: Greenhouse Test 1, foliar spray fungicide screen (APPL SCAB), host apple seedling; details: disease control rating, 400 ppm (+++ at 100 ppm)
[2] = system: Southern corn rootworm (Diabrotica undecimpuctata howardi Barber); assay: Mite/insect screen, soil treatment (CRW); details: Diabrotica, percent mortality, soil treatment, read-out: CRW RESULTS %; for mortality at 12 ppm: CRW rate 12.00 ppm; for mortality at 24 ppm: CRW rate 24.00 ppm
Procedure, shortened: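 Five 2–3 instar larvae were placed on dry sandy soil with a presoaked corn seed after the soil had received 1 mL of compound solution and dried 6–12 h; cups were kept capped at 23°C. Mortality (%) and phytotoxicity were read after standard exposure. Formulation: acetone/alcohol with emulsifiers, water-diluted.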

[3] = system: melon aphids (Aphis gossypii Glover); assay: Mite/insect screen, sprayed squash cotyledons (MA); details: Aphis gossypii, percent mortality, read-out: MA RESULTS %; for mortality at 200 ppm: spray rate 200 ppm; for mortality at 400 ppm: spray rate 400 ppm
Procedure, shortened: (§1)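 Compounds were dissolved in 50:50 acetone/alcohol containing sulfonate/nonionic emulsifier blends (23 g and 13 g per liter) and diluted with water to test concentrations. Leaves were sprayed on both surfaces to runoff and dried for one hour. Percent mortality and phytotoxicity were scored after standard exposure periods.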

[4] = system: Cercospora beticola (leaf spot); assay: Greenhouse Test 1, foliar spray fungicide screen (LEAF SPOT), host sugar beet; details: disease control rating, 400 ppm (+++ at 100 ppm)
[5] = system: Septoria tritici (leaf blotch); assay: Greenhouse Test 1, foliar spray fungicide screen (LEAF BLOT), host wheat; details: disease control rating, 400 ppm (+++ at 100 ppm)
[6] = system: Puccinia recondita tritici (leaf rust); assay: Greenhouse Test 1, foliar spray fungicide screen (LEAF RUST), host wheat; details: disease control rating, 400 ppm (+++ at 100 ppm)
[7] = system: Botrytis cinerea (gray mold); assay: Greenhouse Test 1, foliar spray fungicide screen (GRAY MOLD), host grape berries; details: disease control rating, 400 ppm (+++ at 100 ppm)
[8] = system: Pseudoperonospora cubensis (downy mildew); assay: Greenhouse Test 1, foliar spray fungicide screen (DOWN MDEW), host squash; details: disease control rating, 400 ppm (+++ at 100 ppm)
[9] = system: Pyricularia oryzae (rice blast); details: disease control rating, foliar spray, host rice; 400 ppm (+++ at 100 ppm)
[10] = system: Twospotted spider mites (Tetranychus urticae Koch); assay: Mite/insect screen, sprayed squash cotyledons (SM); details: Tetranychus urticae, percent mortality, read-out: SM RESULTS %; for mortality at 200 ppm: spray rate 200 ppm; for mortality at 400 ppm: spray rate 400 ppm
Procedure, shortened: as §1

[11] = system: southern armyworm (Spodopetra eridania Cramer); assay: Mite/insect screen, sprayed squash leaves (SAW); details: Spodoptera eridania, percent mortality, read-out: SAW RESULTS %; for mortality at 200 ppm: spray rate 200 ppm; for mortality at 400 ppm: spray rate 400 ppm
Procedure, shortened: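 Water-diluted formulations of each compound (acetone/alcohol 50:50 with 23 g/L and 13 g/L emulsifier blends) are sprayed over both leaf faces to runoff. After a standard exposure period, percent kill and phytotoxicity are recorded.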

[12] = system: Erysiphe graminis tritici (powdery mildew); assay: Greenhouse Test 1, foliar spray fungicide screen (POWD MDEW), host wheat; details: disease control rating, 400 ppm (+++ at 100 ppm)

Row | SMILES | APPL SCAB [1] | mortality at 12 ppm [2] | mortality at 200 ppm [3] | LEAF SPOT [4] | LEAF BLOT [5] | LEAF RUST [6] | GRAY MOLD [7] | DOWN MDEW [8] | RICE BLAST [9] | mortality at 200 ppm [10] | mortality at 200 ppm [11] | POWD MDEW [12] | mortality at 24 ppm [2] | mortality at 400 ppm [3] | mortality at 400 ppm [10] | mortality at 400 ppm [11]
1 | c1ccc(CCCNc2nc(NCCCc3ccccc3)c3ccccc3n2)cc1 [Example 24, N,N'-bis(3-phenylpropyl)-2,4-quinazolinediamine] | - (- = 0-19% control at 400 ppm) | 0% | 0% | - (- = 0-19% control at 400 ppm) | - (- = 0-19% control at 400 ppm) | + (+ = 20-89% control at 400 ppm) | - (- = 0-19% control at 400 ppm) | +++ (+++ = 90-100% control at 100 ppm) | + (+ = 20-89% control at 400 ppm) | 0% | 0% | + (+ = 20-89% control at 400 ppm) |  |  |  | 
2 | COc1ccccc1CCNc1nc(NCCc2ccccc2OC)c2ccccc2n1 [Example 25, N,N'-bis[2-(2-methoxyphenyl)ethyl]-2,4-quinazolinediamine] | - (- = 0-19% control at 400 ppm) | 0% | 0% | - (- = 0-19% control at 400 ppm) | - (- = 0-19% control at 400 ppm) | + (+ = 20-89% control at 400 ppm) |  | ++ (++ = 90-100% control at 400 ppm) | + (+ = 20-89% control at 400 ppm) | 0% | 0% | - (- = 0-19% control at 400 ppm) |  |  |  | 
3 | CC(Cc1ccccc1)Nc1nc(NC(C)Cc2ccccc2)c2ccccc2n1 (stereo not shown) [Example 26, N,N'-bis(1-methyl-2-phenylethyl)-2,4-quinazolinediamine] | - (- = 0-19% control at 400 ppm) | 0% | 0% | + (+ = 20-89% control at 400 ppm) | + (+ = 20-89% control at 400 ppm) | ++ (++ = 90-100% control at 400 ppm) | - (- = 0-19% control at 400 ppm) | +++ (+++ = 90-100% control at 100 ppm) | ++ (++ = 90-100% control at 400 ppm) | 0% | 0% | - (- = 0-19% control at 400 ppm) |  |  |  | 
4 | CC(CNc1nc(NCC(C)c2ccccc2)c2ccccc2n1)c1ccccc1 (stereo not shown) [Example 27, N,N'-bis(2-phenylpropyl)-2,4-quinazolinediamine] | - (- = 0-19% control at 400 ppm) | 0% | 0% | - (- = 0-19% control at 400 ppm) | + (+ = 20-89% control at 400 ppm) | + (+ = 20-89% control at 400 ppm) | - (- = 0-19% control at 400 ppm) | +++ (+++ = 90-100% control at 100 ppm) | + (+ = 20-89% control at 400 ppm) | 0% | 0% | - (- = 0-19% control at 400 ppm) |  |  |  | 
5 | Cc1ccc(CCNc2nc(NCCc3ccc(C)cc3)c3ccccc3n2)cc1 [Example 28, N,N'-bis[2-(4-methylphenyl)ethyl]-2,4-quinazolinediamine] | - (- = 0-19% control at 400 ppm) | 0% | 0% | - (- = 0-19% control at 400 ppm) | - (- = 0-19% control at 400 ppm) | ++ (++ = 90-100% control at 400 ppm) | - (- = 0-19% control at 400 ppm) | + (+ = 20-89% control at 400 ppm) | + (+ = 20-89% control at 400 ppm) | 0% | 0% | - (- = 0-19% control at 400 ppm) |  |  |  | 
6 | c1ccc(CCCc2ncnc3ccccc23)cc1 [Example 29, 4-(3-phenylpropyl)quinazoline] | + (+ = 20-89% control at 400 ppm) |  |  | - (- = 0-19% control at 400 ppm) | - (- = 0-19% control at 400 ppm) | ++ (++ = 90-100% control at 400 ppm) | - (- = 0-19% control at 400 ppm) | ++ (++ = 90-100% control at 400 ppm) | +++ (+++ = 90-100% control at 100 ppm) |  |  | + (+ = 20-89% control at 400 ppm) | 0% | 80% | 80% | 0%
7 | Fc1cccc2c(NCCc3ccc4ccccc4c3)ncnc12 [Example 31, 8-fluoro-N-[2-(2-naphthyl)ethyl]-4-quinazolinamine] | - (- = 0-19% control at 400 ppm) | 0% | 40% | + (+ = 20-89% control at 400 ppm) | +++ (+++ = 90-100% control at 100 ppm) | +++ (+++ = 90-100% control at 100 ppm) | - (- = 0-19% control at 400 ppm) | ++ (++ = 90-100% control at 400 ppm) | +++ (+++ = 90-100% control at 100 ppm) | 0% | 80% | + (+ = 20-89% control at 400 ppm) | 0% | 0% | 0% | 30%
8 | c1ccc(Oc2cccc(CCNc3ncnc4ccccc34)c2)cc1 [Example 38, N-[2-(3-phenoxyphenyl)ethyl]-4-quinazolinamine] | + (+ = 20-89% control at 400 ppm) | 0% | 0% | + (+ = 20-89% control at 400 ppm) | ++ (++ = 90-100% control at 400 ppm) | +++ (+++ = 90-100% control at 100 ppm) | - (- = 0-19% control at 400 ppm) | +++ (+++ = 90-100% control at 100 ppm) | +++ (+++ = 90-100% control at 100 ppm) | 0% | 40% | ++ (++ = 90-100% control at 400 ppm) | 100% | 80% | 90% | 40%
9 | c1csc(CCOc2ncnc3ccccc23)c1 [Example 54, 4-[2-(2-thienyl)ethoxy]quinazoline] | + (+ = 20-89% control at 400 ppm) | 0% | 0% | + (+ = 20-89% control at 400 ppm) | + (+ = 20-89% control at 400 ppm) | ++ (++ = 90-100% control at 400 ppm) | - (- = 0-19% control at 400 ppm) | ++ (++ = 90-100% control at 400 ppm) | ++ (++ = 90-100% control at 400 ppm) | 0% | 0% | ++ (++ = 90-100% control at 400 ppm) |  |  |  | 
